The results in this text go back to PMC10504751, “Chalcone/1,3,4-Oxadiazole/Benzimidazole hybrids as novel anti-proliferative agents inducing apoptosis and inhibiting EGFR & BRAFV^600E” (BMC Chemistry, 2023).

One may read the inhibition as the share of the control response that was lost under treatment.

Read-outs that look alike come from different tables or passages of the source.

Holding throughout (test): NCI one-dose SRB anti-proliferative screen
Assay type in all cases: cell-based

One experiment concerns BT-549. The note with it: Homo sapiens, read-out: Cell growth inhibition %. In outline: (§1)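 Sulforhodamine B colorimetric read-out of growth inhibition across the NCI 60-cell-line, nine-subpanel screen. Each compound was given at one 10 µM dose.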
In a further experiment the test system is U251. The note with it: Homo sapiens, U-251, read-out: Cell growth inhibition %. In outline:
as §1

The next experiment deals with NCI-H322M. The note with it: Homo sapiens, read-out: Cell growth inhibition %. The essentials:
as §1

A further experiment relates to SK-MEL-5. The note with it: Homo sapiens, read-out: Cell growth inhibition %. The essentials:
as §1

The subject of the next experiment is EKVX. The note with it: Homo sapiens, read-out: Cell growth inhibition %. In outline: as §1
For the next experiment, the system named is SK-OV-3. The note with it: Homo sapiens, read-out: Cell growth inhibition %. In outline: as §1
Another experiment deals with HCC-2998. The note with it: Homo sapiens, read-out: Cell growth inhibition %. The essentials:
as §1

Another experiment has as its system TK-10. Conditions: Homo sapiens, read-out: Cell growth inhibition %. In outline:
as §1

Another experiment deals with NCI-H226. The note with it: Homo sapiens, read-out: Cell growth inhibition %. In outline:
as §1

For another experiment, the system named is NCI-H23. Conditions: Homo sapiens, read-out: Cell growth inhibition %. In outline: as §1
A further experiment relates to SNB-19. Conditions: Homo sapiens, read-out: Cell growth inhibition %. In outline:
as §1

The subject of another experiment is SR. The note with it: Homo sapiens, read-out: Cell growth inhibition %. The essentials: as §1
The test system of another experiment is MDA-MB-435. The note with it: Homo sapiens, read-out: Cell growth inhibition %. In outline: as §1
In a further experiment the test system is MCF7. Conditions: Homo sapiens, read-out: Cell growth inhibition %. The essentials: as §1
A further experiment deals with A498. Conditions: Homo sapiens, read-out: Cell growth inhibition %. The essentials: as §1
A further experiment concerns IGROV1. The note with it: Homo sapiens, IGROV-1, read-out: Cell growth inhibition %. The essentials: as §1
For the next experiment, the system named is SF-295. Conditions: Homo sapiens, read-out: Cell growth inhibition %. The essentials: as §1
Another experiment concerns OVCAR-8. Conditions: Homo sapiens, read-out: Cell growth inhibition %. The essentials:
as §1

The subject of the next experiment is MDA-MB-231/ATCC. Conditions: Homo sapiens, read-out: Cell growth inhibition %. In outline:
as §1

A further experiment deals with HOP-62. Conditions: Homo sapiens, read-out: Cell growth inhibition %. In outline:
as §1

In a further experiment the test system is CAKI-1. Conditions: Homo sapiens, read-out: Cell growth inhibition %. In outline: as §1
In the next experiment the test system is NCI-H522. Conditions: Homo sapiens, read-out: Cell growth inhibition %. In outline: as §1
In the next experiment the test system is UO-31. Conditions: Homo sapiens, read-out: Cell growth inhibition %. The essentials:
as §1

The next experiment has as its system 786-0. The note with it: Homo sapiens, read-out: Cell growth inhibition %. In outline: as §1
Setting [1] is: BT-549 (Breast Cancer), NCI one dose 10 µM.
Setting [2] is: U251 (CNS Cancer), NCI one dose 10 µM.
The mark [3] stands for this setting: NCI-H322M (Non-Small Cell Lung Cancer), NCI one dose 10 µM.
[4] abbreviates: SK-MEL-5 (Melanoma), NCI one dose 10 µM.
The mark [5] stands for this setting: EKVX (Non-Small Cell Lung Cancer), NCI one dose 10 µM.
The mark [6] stands for this setting: SK-OV-3 (Ovarian Cancer), NCI one dose 10 µM.
Setting [7] is: HCC-2998 (Colon Cancer), NCI one dose 10 µM.
Setting [8] is: TK-10 (Renal Cancer), NCI one dose 10 µM.
Setting [9] is: NCI-H226 (Non-Small Cell Lung Cancer), NCI one dose 10 µM.
The mark [10] stands for this setting: NCI-H23 (Non-Small Cell Lung Cancer), NCI one dose 10 µM.
Where [11] appears, read: SNB-19 (CNS Cancer), NCI one dose 10 µM.
Setting [12] is: SR (Leukemia), NCI one dose 10 µM.
Setting [13] is: MDA-MB-435 (Melanoma), NCI one dose 10 µM.
The mark [14] stands for this setting: MCF7 (Breast Cancer), NCI one dose 10 µM.
The mark [15] stands for this setting: A498 (Renal Cancer), NCI one dose 10 µM.
Setting [16] is: IGROV1 (Ovarian Cancer), NCI one dose 10 µM.
Where [17] appears, read: SF-295 (CNS Cancer), NCI one dose 10 µM.
Where [18] appears, read: OVCAR-8 (Ovarian Cancer), NCI one dose 10 µM.
Setting [19] is: MDA-MB-231/ATCC (Breast Cancer), NCI one dose 10 µM.
The mark [20] stands for this setting: HOP-62 (Non-Small Cell Lung Cancer), NCI one dose 10 µM.
[21] abbreviates: CAKI-1 (Renal Cancer), NCI one dose 10 µM.
Setting [22] is: NCI-H522 (Non-Small Cell Lung Cancer), NCI one dose 10 µM.
The mark [23] stands for this setting: UO-31 (Renal Cancer), NCI one dose 10 µM.
Setting [24] is: 786-0 (Renal Cancer), NCI one dose 10 µM.

In the case of `O=C(CSc1nnc(-c2ccc3[nH]c(-c4ccccc4)nc3c2)o1)Nc1ccc(C(=O)/C=C/c2ccc(Cl)cc2)cc1` [Compound 7b, 2-{5-[2-Phenyl-1 H-benzo[d]imidazol-5-yl]-1,3,4-oxadiazol-2-ylthio}-N-{4-[(E)-3-(4-chlorophenyl)acryloyl]phenyl}acetamide], the inhibition at 10 µM in the experiment on BT-549 (BT-549, Breast cancer, NCI one dose) amounted to 1.92%; in the experiment on U251 (U251, CNS Cancer, NCI one dose), 7.14%; in the experiment with NCI-H322M (NCI-H322M, Non-Small Cell Lung Cancer, NCI one dose) it was 0%; with SK-MEL-5 (SK-MEL-5, Melanoma, NCI one dose), 3.35%; in the experiment with EKVX (EKVX, Non-Small Cell Lung Cancer, NCI one dose) it was 0%; in the experiment on SK-OV-3 (SK-OV-3, Ovarian Cancer, NCI one dose) it was 0%. The inhibition at 10 µM in the experiment with HCC-2998 (HCC-2998, Colon cancer, NCI one dose) was 0%; in the experiment with TK-10 (TK-10, Renal cancer, NCI one dose), 0%; in the experiment with NCI-H226 (NCI-H226, Non-Small Cell Lung Cancer, NCI one dose), 3.63%; in the experiment on NCI-H23 (NCI-H23, Non-Small Cell Lung Cancer, NCI one dose), 0%; with SNB-19 (SNB-19, CNS Cancer, NCI one dose), 3.92%; in the experiment with SR (SR, Leukemia, NCI one dose), 3.59%. Moreover, the inhibition at 10 µM amounted to 0% with MDA-MB-435 (MDA-MB-435, Melanoma, NCI one dose); 16.8% with MCF7 (MCF7, Breast cancer, NCI one dose); 6.84% in the experiment on A498 (A498, Renal cancer, NCI one dose); 15.3% with IGROV1 (IGROV1, Ovarian Cancer, NCI one dose); 0% in the experiment on SF-295 (SF-295, CNS Cancer, NCI one dose); 2.36% in the experiment with OVCAR-8 (OVCAR-8, Ovarian Cancer, NCI one dose). Further, the inhibition at 10 µM with MDA-MB-231/ATCC (MDA-MB-231/ATCC, Breast cancer, NCI one dose) was 4.03%; with HOP-62 (HOP-62, Non-Small Cell Lung Cancer, NCI one dose), 0%; in the experiment with CAKI-1 (CAKI-1, Renal cancer, NCI one dose), 1.52%; with NCI-H522 (NCI-H522, Non-Small Cell Lung Cancer, NCI one dose), 11.6%; with UO-31 (UO-31, Renal cancer, NCI one dose), 25.5%; with 786-0 (786-0, Renal cancer, NCI one dose), 2.96%.

`COc1ccc(/C=C/C(=O)c2ccc(NC(=O)CSc3nnc(-c4ccc5[nH]c(-c6ccc(Cl)cc6)nc5c4)o3)cc2)cc1` [Compound 7h, 2-{5-[2-(4-Chlorophenyl)-1 H-benzo[d]imidazol-5-yl]-1,3,4-oxadiazol-2-ylthio}-N-{4-[(E)-3-(4-methoxyphenyl)acryloyl]phenyl}acetamide]: the inhibition at 10 µM is 15% with BT-549 (setting [1]); 3.98% with U251 (setting [2]); 0% with NCI-H322M (setting [3]); 10.3% in the experiment with SK-MEL-5 (setting [4]); 0% in the experiment on EKVX (setting [5]); 0% in the experiment with SK-OV-3 (setting [6]). For the same molecule, the inhibition at 10 µM is 0% with HCC-2998 (setting [7]); 0% in the experiment with TK-10 (setting [8]); 12.4% in the experiment on NCI-H226 (setting [9]); 6% with NCI-H23 (setting [10]); 0% in the experiment on SNB-19 (setting [11]); 19.5% in the experiment with SR (setting [12]). The inhibition at 10 µM with MDA-MB-435 (setting [13]) was found to be 1.94%; in the experiment on MCF7 (setting [14]), 20.3%; in the experiment with A498 (setting [15]), 0%; in the experiment with IGROV1 (setting [16]), 4.69%; in the experiment on SF-295 (setting [17]) it was 0%; in the experiment on OVCAR-8 (setting [18]) it was 20.5%. Moreover, the inhibition at 10 µM in the experiment with MDA-MB-231/ATCC (setting [19]) was 1.61%; with HOP-62 (setting [20]), 0%; in the experiment on CAKI-1 (setting [21]), 2.63%; with NCI-H522 (setting [22]), 20.9%; with UO-31 (setting [23]) it was 12.5%; in the experiment with 786-0 (setting [24]) it was 0.41%.

As for `COc1cc(-c2nc3cc(-c4nnc(SCC(=O)Nc5ccc(C(=O)/C=C/c6ccccc6)cc5)o4)ccc3[nH]2)cc(OC)c1OC` [Compound 7u, 2-{5-[2-(3,4,5-Trimethoxyphenyl)-1 H-benzo[d]imidazol-5-yl]-1,3,4-oxadiazol-2-ylthio}-N-{4-[(E)-3-phenylacryloyl]phenyl}acetamide], the inhibition at 10 µM with BT-549 (setting [1]) stood at 28.9%; in the experiment with U251 (setting [2]), 9.89%; with NCI-H322M (setting [3]), 0%; with SK-MEL-5 (setting [4]), 5.99%; in the experiment with EKVX (setting [5]), 0%; in the experiment with SK-OV-3 (setting [6]), 0%. The inhibition at 10 µM in the experiment with HCC-2998 (setting [7]) was determined as 0%; in the experiment with TK-10 (setting [8]), 0%; with NCI-H226 (setting [9]), 10.4%; in the experiment on NCI-H23 (setting [10]), 3.04%; in the experiment on SNB-19 (setting [11]) it was 0%; in the experiment with SR (setting [12]) it was 40.3%. The inhibition at 10 µM with MDA-MB-435 (setting [13]) was determined as 6.83%; in the experiment on MCF7 (setting [14]), 44.7%; with A498 (setting [15]), 0%; with IGROV1 (setting [16]) it was 29%; in the experiment with SF-295 (setting [17]) it was 2%; in the experiment on OVCAR-8 (setting [18]), 10.6%. Also, the inhibition at 10 µM in the experiment with MDA-MB-231/ATCC (setting [19]) is 4.05%; with HOP-62 (setting [20]), 0%; in the experiment on CAKI-1 (setting [21]) it was 0%; in the experiment on NCI-H522 (setting [22]), 3.99%; with UO-31 (setting [23]), 21%; in the experiment with 786-0 (setting [24]), 0%.

As to `O=C(CSc1nnc(-c2ccc3[nH]c(-c4ccc(Cl)cc4)nc3c2)o1)Nc1ccc(C(=O)/C=C/c2ccccc2)cc1` [Compound 7f, 2-{5-[2-(4-Chlorophenyl)-1 H-benzo[d]imidazol-5-yl]-1,3,4-oxadiazol-2-ylthio}-N-{4-[(E)-3-phenylacryloyl]phenyl}acetamide], the inhibition at 10 µM in the experiment on BT-549 (setting [1]) came to 0%; in the experiment with U251 (setting [2]), 3.23%; in the experiment on NCI-H322M (setting [3]), 0%; in the experiment with SK-MEL-5 (setting [4]) it was 0.99%; in the experiment with EKVX (setting [5]) it was 0%; in the experiment on SK-OV-3 (setting [6]), 0%. The inhibition at 10 µM in the experiment with HCC-2998 (setting [7]) was determined as 0%; in the experiment on TK-10 (setting [8]) it was 0%; in the experiment on NCI-H226 (setting [9]), 2.19%; in the experiment with NCI-H23 (setting [10]), 0%; in the experiment on SNB-19 (setting [11]), 0%; with SR (setting [12]), 15.2%. Moreover, the inhibition at 10 µM came out at 0% with MDA-MB-435 (setting [13]); 18.4% with MCF7 (setting [14]); 0% in the experiment on A498 (setting [15]); 0% in the experiment on IGROV1 (setting [16]); 0% with SF-295 (setting [17]); 0% with OVCAR-8 (setting [18]). In addition, the inhibition at 10 µM stood at 2.18% with MDA-MB-231/ATCC (setting [19]); 0% in the experiment with HOP-62 (setting [20]); 1.83% in the experiment with CAKI-1 (setting [21]); 0% with NCI-H522 (setting [22]); 12.2% in the experiment with UO-31 (setting [23]); 0% in the experiment on 786-0 (setting [24]).
